The IC50 is the midpoint of a concentration-inhibition curve.

In patent US9315503B2, “Kinase inhibitors” (CHIESI FARMACEUTICI S.p.A., priority 2011, dated 2016) one finds IC50 data, which are given here for 15 compounds.

SMILES strings stand for the structures. Structures can show the parent of a compound that is named as a salt. Bounds are passed on as bounds.

The target in this assay is T1, p38alpha (Homo sapiens, UniProt Q16539).
T1 construct: purchased Invitrogen PV3304
T1 sequence (Q16539 whole entry): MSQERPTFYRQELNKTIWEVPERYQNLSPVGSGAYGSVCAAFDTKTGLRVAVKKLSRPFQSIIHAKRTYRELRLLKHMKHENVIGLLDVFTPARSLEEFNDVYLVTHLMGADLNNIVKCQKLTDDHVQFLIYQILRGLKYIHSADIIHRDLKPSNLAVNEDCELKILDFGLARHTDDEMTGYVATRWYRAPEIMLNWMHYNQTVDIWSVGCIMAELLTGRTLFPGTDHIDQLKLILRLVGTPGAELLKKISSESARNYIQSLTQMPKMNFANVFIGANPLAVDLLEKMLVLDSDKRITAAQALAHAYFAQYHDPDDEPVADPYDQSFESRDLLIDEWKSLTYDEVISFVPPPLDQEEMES
Description: P38Alpha enzyme inhibition assay (Alphascreen kinase activity assay). The assay is classed as biochemical. The following applies: 100 pM p38alpha, 250 μM ATP, 2 hours pre-incubation at 25° C., read-out: p38α inhibition (IC50 values). The procedure: P38Alpha Enzyme Inhibition Assay.
The inhibitory activity of compounds was determined using an Alphascreen® (Perkin Elmer) based kinase activity assay. Kinase reactions consisted of 25 mM HEPES pH 7.5, 10 mM MgCl2, 100 μM Na3VO4, 2 mM DTT, 0.05 mg/ml Tween 20, 100 pM p38alpha (Invitrogen, PV3304), 1% DMSO and 0.3 μg/ml ATF-2 fusion protein (New England Biolabs, 9224). Compounds were incubated under these conditions for 2 hours, at 25° C., prior to the initiation of the kinase activity by the addition of the 250 μM ATP. Reaction volumes were 20 uL. After 1 hr at 25° C. reactions were stopped by the adding 10 uL of 25 mM HEPES pH 7.5 containing 62.5 mM EDTA, 0.05% Triton X-100, 10% BSA and 0.83 ng/uL anti-phospho-ATF2 antibody (Abeam, ab28812). Detection was performed by measuring luminescence following the addition of Alphascreen Donor beads (Perkin Elmer 6765300) and Protein A Alphascreen Acceptor beads (Perkin Elmer 6760137), both at a final concentration of 20 ug/ml. IC50 values were determined from concentration-response curves.
In general terms: Alpha assays give light when donor and acceptor beads are brought close together.
For the compound `Cc1ccc(-n2nc(C(C)(C)C)cc2NC(=O)N[C@H]2CC[C@@H](Oc3ccc4nnc([C@@H]5CCCN5)n4c3)c3ccccc32)cc1` [Example 6, 1-(5-tert-Butyl-2-p-tolyl-2H-pyrazol-3-yl)-3-[(1S,4R)-4-((S)-3-pyrrolidin-2-yl-[1,2,4]triazolo[4,3-a]pyridin-6-yloxy)-1,2,3,4-tetrahydro-naphthalen-1-yl]-urea], the IC50 is below 10 nM.
With `Cc1ccc(-n2nc(C(C)(C)C)cc2NC(=O)N[C@H]2CC[C@@H](OCCN3CCOCC3)c3ccccc32)cc1` [Example 32, 1-(5-tert-Butyl-2-p-tolyl-2H-pyrazol-3-yl)-3-[(1S,4R)-4-(2-morpholin-4-yl-ethoxy)-1,2,3,4-tetrahydro-naphthalen-1-yl]-urea], the IC50 was 100 to 500 nM.
For `Cc1ccc(-n2nc(C(C)(C)C)cc2NC(=O)N[C@H]2CC[C@@H](Oc3ccc4nnc(N(C)CCN5CCOCC5)n4c3)c3ccccc32)cc1` [Example 45, 1-(5-tert-Butyl-2-p-tolyl-2H-pyrazol-3-yl)-3-((1S,4R)-4-{3-[methyl-(2-morpholin-4-yl-ethyl)-amino]-[1,2,4]triazolo[4,3-a]pyridin-6-yloxy}-1,2,3,4-tetrahydro-naphthalen-1-yl)-urea], the IC50 is below 10 nM.
For `Cc1ccc(-c2nc(C(C)(C)C)[nH]c2NC(=O)N[C@H]2CC[C@@H](Oc3ccc4nnc(N5CCCCC5)n4c3)c3ccccc32)cc1` [Example 51, 1-(2-tert-Butyl-5-p-tolyl-3H-imidazol-4-yl)-3-[(1S,4R)-4-(3-piperidin-1-yl-[1,2,4]triazolo[4,3-a]pyridin-6-yloxy)-1,2,3,4-tetrahydro-naphthalen-1-yl]-urea] the value was below 10 nM; for `Cc1ccc(-n2nc(C(C)(C)C)cc2NC(=O)N[C@H]2CC[C@@H](Oc3ccc4nnc(CN5CCN(C)C(CO)C5)n4c3)c3ccccc32)cc1` (stereo partly drawn) [Example 56, 1-(5-tert-Butyl-2-p-tolyl-2H-pyrazol-3-yl)-3-{(1S,4R)-4-[3-(3-hydroxymethyl-4-methyl-piperazin-1-ylmethyl)-[1,2,4]triazolo[4,3-a]pyridin-6-yloxy]-1,2,3,4-tetrahydro-naphthalen-1-yl}-urea], below 10 nM.
For `Cc1ccc(-n2nc(C(C)(C)C)cc2NC(=O)N[C@H]2CC[C@@H](Oc3ccc4nnc([C@@H]5C[C@@H](F)CN5C)n4c3)c3ccccc32)cc1` [Example 91, 1-(5-tert-Butyl-2-p-tolyl-2H-pyrazol-3-yl)-3-{(1S,4R)-4-[3-((2S,4R)-4-fluoro-1-methyl-pyrrolidin-2-yl)-[1,2,4]triazolo[4,3-a]pyridin-6-yloxy]-1,2,3,4-tetrahydro-naphthalen-1-yl}-urea] the value was below 10 nM.
`C[C@H]1CCCCN1c1nnc2ccc(O[C@@H]3CC[C@H](NC(=O)Nc4cc(C(C)(C)C)nn4-c4cccc(CCN5CCOCC5)c4)c4ccccc43)cn12` [Example 131, 1-{5-tert-Butyl-2-[3-(2-morpholin-4-yl-ethyl)-phenyl]-2H-pyrazol-3-yl}-3-{(1S,4R)-4-[3-((S)-2-methyl-piperidin-1-yl)-[1,2,4]triazolo[4,3-a]pyridin-6-yloxy]-1,2,3,4-tetrahydro-naphthalen-1-yl}-urea formate salt]: the IC50 is below 10 nM.
Consider `C[C@H]1CCCCN1c1nnc2ccc(O[C@@H]3CC[C@H](NC(=O)Nc4cc(C(C)(C)C)nn4-c4cccc(CCN5CCCC5)c4)c4ccccc43)cn12` [Example 132, 1-{5-tert-Butyl-2-[3-(2-pyrrolidin-1-yl-ethyl)-phenyl]-2H-pyrazol-3-yl}-3-{(1S,4R)-4-[3-((S)-2-methyl-piperidin-1-yl)-[1,2,4]triazolo[4,3-a]pyridin-6-yloxy]-1,2,3,4-tetrahydro-naphthalen-1-yl}-urea formate salt], for which the IC50 was below 10 nM.
The figure for `CCN(C)CCc1cccc(-n2nc(C(C)(C)C)cc2NC(=O)N[C@H]2CC[C@@H](Oc3ccc4nnc(N5CCCC[C@@H]5C)n4c3)c3ccccc32)c1` [Example 133, 1-(5-tert-Butyl-2-{3-[2-(ethyl-methyl-amino)-ethyl]-phenyl}-2H-pyrazol-3-yl)-3-{(1S,4R)-4-[3-((S)-2-methyl-piperidin-1-yl)-[1,2,4]triazolo[4,3-a]pyridin-6-yloxy]-1,2,3,4-tetrahydro-naphthalen-1-yl}-urea formate salt] is below 10 nM.
Regarding `C[C@H]1CCCCN1c1nnc2ccc(O[C@@H]3CC[C@H](NC(=O)Nc4cc(C(C)(C)C)nn4-c4cccc(CCN(C)C)c4)c4ccccc43)cn12` [Example 134, 1-{5-tert-Butyl-2-[3-(2-dimethylamino-ethyl)-phenyl]-2H-pyrazol-3-yl}-3-{(1S,4R)-4-[3-((S)-2-methyl-piperidin-1-yl)-[1,2,4]triazolo[4,3-a]pyridin-6-yloxy]-1,2,3,4-tetrahydro-naphthalen-1-yl}-urea formate salt], the IC50 was below 10 nM.
In the case of `C[C@H]1CCCCN1c1nnc2ccc(O[C@@H]3CC[C@H](NC(=O)Nc4cc(C(C)(C)C)nn4-c4cccc(CCN5CCCCC5)c4)c4ccccc43)cn12` [Example 135, 1-{5-tert-Butyl-2-[3-(2-piperidin-1-yl-ethyl)-phenyl]-2H-pyrazol-3-yl}-3-{(1S,4R)-4-[3-((S)-2-methyl-piperidin-1-yl)-[1,2,4]triazolo[4,3-a]pyridin-6-yloxy]-1,2,3,4-tetrahydro-naphthalen-1-yl}-urea formate salt], the IC50 was below 10 nM.
`C[C@H]1CCCCN1c1nnc2ccc(O[C@@H]3CC[C@H](NC(=O)Nc4cc(C(C)(C)C)nn4-c4cccc(CCN5CCN(C)CC5)c4)c4ccccc43)cn12` [Example 136, 1-(5-tert-Butyl-2-{3-[2-(4-methyl-piperazin-1-yl)-ethyl]-phenyl}-2H-pyrazol-3-yl)-3-{(1S,4R)-4-[3-((S)-2-methyl-piperidin-1-yl)-[1,2,4]triazolo[4,3-a]pyridin-6-yloxy]-1,2,3,4-tetrahydro-naphthalen-1-yl}-urea formate salt]: the IC50 was below 10 nM.
For `C[C@H]1CCCCN1c1nnc2ccc(O[C@@H]3CC[C@H](NC(=O)Nc4cc(C(C)(C)C)nn4-c4cccc(CCN5CCCOCC5)c4)c4ccccc43)cn12` [Example 137, 1-{5-tert-Butyl-2-[3-(2-[1,4]oxazepan-4-yl-ethyl)-phenyl]-2H-pyrazol-3-yl}-3-{(1S,4R)-4-[3-((S)-2-methyl-piperidin-1-yl)-[1,2,4]triazolo[4,3-a]pyridin-6-yloxy]-1,2,3,4-tetrahydro-naphthalen-1-yl}-urea formate salt] the value was below 10 nM; for `C[C@H]1CCCCN1c1nnc2ccc(O[C@@H]3CC[C@H](NC(=O)Nc4cc(C(C)(C)C)nn4-c4cccc(CCN5CCCN(C)CC5)c4)c4ccccc43)cn12` [Example 138, 1-(5-tert-Butyl-2-{3-[2-(4-methyl-[1,4]diazepan-1-yl)-ethyl]-phenyl}-2H-pyrazol-3-yl)-3-{(1S,4R)-4-[3-((S)-2-methyl-piperidin-1-yl)-[1,2,4]triazolo[4,3-a]pyridin-6-yloxy]-1,2,3,4-tetrahydro-naphthalen-1-yl}-urea formate salt], below 10 nM.
For `C[C@H]1COCCN1c1nnc2ccc(O[C@@H]3CC[C@H](NC(=O)Nc4cc(C(C)(C)C)nn4CCO)c4ccccc43)cn12` [Example 139, 1-[5-tert-Butyl-2-(2-hydroxy-ethyl)-2H-pyrazol-3-yl]-3-{(1S,4R)-4-[3-((S)-3-methyl-morpholin-4-yl)-[1,2,4]triazolo[4,3-a]pyridin-6-yloxy]-1,2,3,4-tetrahydro-naphthalen-1-yl}-urea] the value was below 10 nM.
